In BindingDB's records for patent US11718613 (University of Michigan, 2023):

Target: Induced myeloid leukemia cell differentiation protein Mcl-1 (Homo sapiens, UniProt Q07820)
Experiment: Bcl-2 and Bcl-xL Inhibition Assay
Method: Fluorescence polarization values were measured using the Infinite M-1000 plate reader (Tecan U.S., Research Triangle Park, N.C.) in Microfluor 1 96-well, black, round-bottom plates (Thermo Scientific). […] Plates were mixed and incubated at room temperature for 1 hour with gentle shaking to assure equilibrium. […] Equilibrium dissociation constants (Kd) were then calculated by fitting the sigmoidal dose-dependent FP increases as a function of protein concentrations using Graphpad Prism 5.0 software (Graphpad Software, San Diego, Calif.).

Chain of Induced myeloid leukemia cell differentiation protein Mcl-1 (Q07820 whole entry): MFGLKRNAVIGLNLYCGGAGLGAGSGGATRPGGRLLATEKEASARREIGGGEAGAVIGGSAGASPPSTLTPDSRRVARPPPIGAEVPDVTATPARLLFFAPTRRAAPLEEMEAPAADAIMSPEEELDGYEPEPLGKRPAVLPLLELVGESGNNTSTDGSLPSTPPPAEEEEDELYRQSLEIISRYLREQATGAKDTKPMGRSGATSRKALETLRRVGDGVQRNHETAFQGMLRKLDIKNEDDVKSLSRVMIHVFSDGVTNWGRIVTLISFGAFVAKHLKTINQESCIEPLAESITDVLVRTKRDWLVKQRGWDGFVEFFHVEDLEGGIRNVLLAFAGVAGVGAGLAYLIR

O=C(NS(=O)(=O)c1ccc(NC[C@@H]2COCCO2)c([N+](=O)[O-])c1)c1ccc(N2CCN(CC3=C(c4ccc(Cl)cc4)CC4(CCC4)CC3)CC2)cc1Oc1cnc2[nH]ccc2c1 [US11718613, Compound 13]
IC50: > 5 µM
